Activity calls are given as the source filed them. The calls are words filed in the database; no cut-off is given here.
Columns and labels:
[1] = target: T1, Ubiquitin carboxyl-terminal hydrolase 25 (Homo sapiens) (UniProt Q9UHP3); experiment: Inhibition of USP25 (unknown origin) expressed in Escherichia coli BL21 (DE3) using Ub-AMC as substrate at 5 uM by fluorescence based analysis
T1 sequence (whole entry): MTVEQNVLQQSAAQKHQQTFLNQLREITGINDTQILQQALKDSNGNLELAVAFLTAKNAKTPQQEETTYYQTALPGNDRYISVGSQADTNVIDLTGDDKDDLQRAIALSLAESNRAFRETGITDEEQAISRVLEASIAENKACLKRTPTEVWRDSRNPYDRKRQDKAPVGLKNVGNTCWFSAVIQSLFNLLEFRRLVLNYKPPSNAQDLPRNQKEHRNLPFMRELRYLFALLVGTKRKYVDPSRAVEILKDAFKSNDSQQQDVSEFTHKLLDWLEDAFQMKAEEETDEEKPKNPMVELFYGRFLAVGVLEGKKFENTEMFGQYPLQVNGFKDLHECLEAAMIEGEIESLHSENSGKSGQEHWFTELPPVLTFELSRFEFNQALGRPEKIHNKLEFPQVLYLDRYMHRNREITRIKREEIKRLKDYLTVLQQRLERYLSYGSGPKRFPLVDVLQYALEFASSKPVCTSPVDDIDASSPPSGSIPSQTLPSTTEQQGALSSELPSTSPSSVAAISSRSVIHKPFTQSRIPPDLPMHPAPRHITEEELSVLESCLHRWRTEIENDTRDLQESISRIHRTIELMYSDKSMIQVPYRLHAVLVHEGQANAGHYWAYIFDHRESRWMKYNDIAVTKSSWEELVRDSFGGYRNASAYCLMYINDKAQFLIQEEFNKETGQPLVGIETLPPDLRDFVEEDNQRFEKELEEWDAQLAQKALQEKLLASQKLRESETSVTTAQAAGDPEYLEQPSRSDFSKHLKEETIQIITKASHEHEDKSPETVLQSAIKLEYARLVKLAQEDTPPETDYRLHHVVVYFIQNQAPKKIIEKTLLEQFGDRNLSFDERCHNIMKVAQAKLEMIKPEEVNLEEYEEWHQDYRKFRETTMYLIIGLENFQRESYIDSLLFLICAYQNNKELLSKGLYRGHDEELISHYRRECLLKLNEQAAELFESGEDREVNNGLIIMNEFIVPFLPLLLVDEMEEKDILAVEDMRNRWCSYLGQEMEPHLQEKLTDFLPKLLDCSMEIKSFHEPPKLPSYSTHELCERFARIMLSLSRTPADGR

HCT-116 [2] = experiment: Inhibition of colony formation in human HCT-116 cells at 15 uM by crystal violet staining assay; format: functional, cell-based
HCT-116 [3] = experiment: Antiproliferative activity against human HCT-116 cells assessed as effect on Bcl-2 protein level at 30 to 100 uM incubated for 1 day by western blotting analysis; format: functional, cell-based; details: dose 30-100 µM
LS174T [4] = experiment: Inhibition of colony formation in human LS174T cells at 10 uM by crystal violet staining assay; format: functional, cell-based
LS174T [5] = experiment: Antiproliferative activity against human LS174T cells assessed as cell growth inhibition at 10 to 30 uM incubated for 3 days in presence of Regorafenib by SRB assay; format: functional, cell-based; details: dose 10-30 µM, time 3.0 day
[6] = target: Ubiquitin carboxyl-terminal hydrolase 9X (Homo sapiens) (UniProt Q93008); experiment: Inhibition of USP9X (1151 to 1970 residues) (unknown origin) expressed in Escherichia coli BL21 (DE3) using Ub-AMC as substrate at 5 uM by fluorescence based analysis
Chain of Ubiquitin carboxyl-terminal hydrolase 9X (Homo sapiens) (Q93008 whole entry, the tested form may be a part): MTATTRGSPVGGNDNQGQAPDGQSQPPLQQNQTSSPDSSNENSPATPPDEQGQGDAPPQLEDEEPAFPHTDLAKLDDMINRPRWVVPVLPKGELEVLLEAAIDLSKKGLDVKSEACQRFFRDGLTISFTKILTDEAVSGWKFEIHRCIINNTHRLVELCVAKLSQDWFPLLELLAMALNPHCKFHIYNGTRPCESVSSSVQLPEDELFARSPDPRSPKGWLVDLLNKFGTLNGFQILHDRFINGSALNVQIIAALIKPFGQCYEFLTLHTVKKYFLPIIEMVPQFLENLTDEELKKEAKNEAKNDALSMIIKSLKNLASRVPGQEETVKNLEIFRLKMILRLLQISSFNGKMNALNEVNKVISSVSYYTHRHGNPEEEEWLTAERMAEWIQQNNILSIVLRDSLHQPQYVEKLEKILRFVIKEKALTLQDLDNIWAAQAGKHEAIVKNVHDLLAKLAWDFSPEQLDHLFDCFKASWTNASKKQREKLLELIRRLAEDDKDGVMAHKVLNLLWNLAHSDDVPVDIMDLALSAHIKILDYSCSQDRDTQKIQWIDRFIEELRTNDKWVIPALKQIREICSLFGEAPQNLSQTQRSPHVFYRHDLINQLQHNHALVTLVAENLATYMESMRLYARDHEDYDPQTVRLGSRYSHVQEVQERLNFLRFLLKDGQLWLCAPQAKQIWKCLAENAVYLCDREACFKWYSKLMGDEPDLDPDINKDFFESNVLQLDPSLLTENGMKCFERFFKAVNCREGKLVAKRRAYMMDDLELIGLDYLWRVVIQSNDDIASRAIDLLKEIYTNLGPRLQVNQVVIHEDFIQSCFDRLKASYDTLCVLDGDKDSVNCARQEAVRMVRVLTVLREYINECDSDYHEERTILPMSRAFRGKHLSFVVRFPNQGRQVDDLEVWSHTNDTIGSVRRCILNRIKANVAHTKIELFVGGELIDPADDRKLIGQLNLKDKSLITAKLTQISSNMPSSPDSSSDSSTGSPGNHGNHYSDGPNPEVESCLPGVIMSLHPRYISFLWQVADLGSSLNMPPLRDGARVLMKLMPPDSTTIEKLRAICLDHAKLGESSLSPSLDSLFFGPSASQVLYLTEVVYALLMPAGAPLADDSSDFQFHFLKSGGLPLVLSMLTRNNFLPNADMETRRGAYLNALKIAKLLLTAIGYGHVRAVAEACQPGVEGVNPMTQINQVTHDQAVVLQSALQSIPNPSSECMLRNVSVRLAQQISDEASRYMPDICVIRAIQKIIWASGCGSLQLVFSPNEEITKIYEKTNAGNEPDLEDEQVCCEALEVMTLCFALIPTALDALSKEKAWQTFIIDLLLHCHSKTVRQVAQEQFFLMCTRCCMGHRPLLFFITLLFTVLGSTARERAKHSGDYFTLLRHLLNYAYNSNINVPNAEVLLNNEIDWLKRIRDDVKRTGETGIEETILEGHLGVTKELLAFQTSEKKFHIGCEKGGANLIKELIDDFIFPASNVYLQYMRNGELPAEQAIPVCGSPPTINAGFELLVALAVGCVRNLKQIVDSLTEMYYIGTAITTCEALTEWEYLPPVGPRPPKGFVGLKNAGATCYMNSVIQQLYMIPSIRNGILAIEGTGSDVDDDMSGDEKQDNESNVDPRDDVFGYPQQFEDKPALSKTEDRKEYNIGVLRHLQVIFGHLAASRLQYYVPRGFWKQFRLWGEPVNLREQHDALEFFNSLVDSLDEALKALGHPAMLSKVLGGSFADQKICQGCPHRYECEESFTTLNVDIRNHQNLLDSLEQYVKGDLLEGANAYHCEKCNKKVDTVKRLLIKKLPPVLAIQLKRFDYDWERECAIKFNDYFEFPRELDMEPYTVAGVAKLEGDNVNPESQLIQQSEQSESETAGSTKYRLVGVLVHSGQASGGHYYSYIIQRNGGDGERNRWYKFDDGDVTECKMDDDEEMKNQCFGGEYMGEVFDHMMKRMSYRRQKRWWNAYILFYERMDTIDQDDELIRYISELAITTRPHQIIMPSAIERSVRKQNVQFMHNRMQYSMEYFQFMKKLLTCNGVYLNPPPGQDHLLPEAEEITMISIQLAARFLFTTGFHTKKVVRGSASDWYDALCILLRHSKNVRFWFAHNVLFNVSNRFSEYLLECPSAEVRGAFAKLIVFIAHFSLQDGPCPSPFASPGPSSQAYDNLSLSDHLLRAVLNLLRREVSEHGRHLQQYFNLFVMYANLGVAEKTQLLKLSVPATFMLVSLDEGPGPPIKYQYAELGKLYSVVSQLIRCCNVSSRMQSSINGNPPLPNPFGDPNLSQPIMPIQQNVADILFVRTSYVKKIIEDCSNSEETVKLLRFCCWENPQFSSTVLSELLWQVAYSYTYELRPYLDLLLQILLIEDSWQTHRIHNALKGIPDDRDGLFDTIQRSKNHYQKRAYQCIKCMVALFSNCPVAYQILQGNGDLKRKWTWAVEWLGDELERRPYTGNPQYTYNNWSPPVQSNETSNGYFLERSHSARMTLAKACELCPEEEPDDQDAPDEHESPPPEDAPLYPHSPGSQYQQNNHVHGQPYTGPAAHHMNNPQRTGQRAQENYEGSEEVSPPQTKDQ

HCT-116 [7] = experiment: Inhibition of colony formation in human HCT-116 cells at 17.5 uM by crystal violet staining assay; format: functional, cell-based
LS174T [8] = experiment: Inhibition of colony formation in human LS174T cells at 15 uM by crystal violet staining assay; format: functional, cell-based
HCT-116 [9] = experiment: Antiproliferative activity against human HCT-116 cells assessed as effect on Bcl-2 protein level at 30 to 80 uM incubated for 1 day by western blotting analysis; format: functional, cell-based; details: dose 30-80 µM
LS174T [10] = experiment: Inhibition of colony formation in human LS174T cells at 12.5 uM by crystal violet staining assay; format: functional, cell-based
[11] = target: T1, Ubiquitin carboxyl-terminal hydrolase 25 (Homo sapiens); experiment: Inhibition of USP25 in human LS174T cells assessed as downregulation of Tankyrase 1/2 protein level; format: cell-based

| inhibition [1] | inhibition [6] | inhibition [11] | Structure (SMILES) | inhibition (HCT-116 [2]) | Activity (HCT-116 [3]) | inhibition (LS174T [4]) | Activity (LS174T [5]) | inhibition (HCT-116 [7]) | inhibition (LS174T [8]) | Activity (HCT-116 [9]) | inhibition (LS174T [10]) |
| --- | --- | --- | --- | --- | --- | --- | --- | --- | --- | --- | --- |
| Active | Active | – | CS(=O)(=O)c1ccc(C(=O)Nc2ccc(Cl)c(-c3ccc4c(c3)CCNC4)c2)c(Cl)c1 | Active | inactive | Active | Active | – | – | – | – |
| Active | Active | – | CS(=O)(=O)c1ccc(C(=O)Nc2ccc(Cl)c(-c3ccc(C4(N)CC4)cc3)c2)c(Cl)c1 | – | – | – | Active | Active | Active | inactive | – |
| Active | Active | Active | CS(=O)(=O)c1ccc(C(=O)Nc2ccc(Cl)c(-c3ccc4c(c3)CNC4)c2)c(Cl)c1 | Active | inactive | – | Active | – | – | – | Active |

Source: ChEMBL document CHEMBL5325426, “Structure-based discovery of potent USP28 inhibitors derived from Vismodegib” (Eur J Med Chem, 2023)
